# Where two headings read alike, the source gives them in different places.
# How the values were obtained:
# [1] = free state; cited from earlier work
# [2] = test system: STZ-induced diabetic rats; details: for blood glucose level: 75 mg/kgbw intraperitoneal once every five days
# Experimental: Healthy adult male albino Rattus norvegicus Wistar rats, weighing 170-200 g were procured from Sri Raghavendra Enterprises, Bangalore, Karnataka, India. Studies were conducted in accordance with the guidance for the care and standard experimental animal ethical protocols. Animals were acclimated for a week, maintained at room temperature of 25±2° C. with 12-h dark-light cycle and given tap water and a standard rodent pellet diet ad libitum.
# Six (6) groups with six rats each were used. Group I consisted of control animals and diabetes was induced in 12 hour fasted rats in Groups II-VI by a single intraperitoneal 60 mg/kgbw dose of STZ dissolved in freshly prepared 0.1 mol/L citrate buffer (pH 4.5). Blood samples obtained by sequential snipping of the tail and blood glucose levels measured using an ACCU-CHECK® glucometer on a daily basis. […] Group II became the positive control.
# The dose-response of the drug was monitored for a period of 30 and 90 days using differential grades of drug at doses of 1, 10, 25, 50, 75, and 100 mg/kgbw administered once every five days. On the fifth day after the first administration, blood was collected and blood glucose levels measured using an ACCU-CHECK® glucometer. Subsequently each group was given its respective second and subsequent doses through intraperitoneal injection.
# (§1) The following values were determined spectrophotometrically: (a) daily blood glucose levels (via Accu-check glucometer kit, Roche Diagnostics India); (b) hepatic glycogen (see Seifter et al., (1950) Arch Biochem 25(1):191-200); (c) glycosylated hemoglobin (see Sudhakar and Pattabiraman (1981) Clin Chim Acta 109:267-274); (d) blood urea nitrogen (BUN); (e) serum creatinine (see Hare (1950) Proc Soc Exp Biol Med 74:148-151); and (f) hepatic enzymes (AST, ALT) (see Reitman and Frankel (1957) Am J Clin Pathol 28:56-63).
# (§2) Biostatistical analysis was conducted using SPSS 20.0 software. Analysis of variance (one-way ANOVA) was performed with the Tukey HSD post hoc test.
# [3] = test system: STZ induced diabetic mice
# Experimental: Streptozotocin (STZ; 2-deoxy-2-(3-methyl-3-nitrosoureido)-D-glucopyranose), a diabetogenic agent having the ability to induce pancreatic β-cell toxicity, is one of the chemicals used worldwide to induce diabetes in a simple and convenient method.
# Adult albino mice, Mus musculus, three months old, weighing 30±5 g were procured from Sri Raghavendra Enterprises, Bangalore and acclimatized to laboratory conditions (12:12 hr dark/light, 25±2° C.) for one week. During acclimatization and thereafter, mice were maintained on standard rodent pellet and tap water ad libitum in accordance with ethical guidelines for animal care and experimentation.
# Six (6) groups with six mice each were used. […] Group II became the positive control. […] On the fifth day after the first administration, blood was collected by tail pricking and blood glucose levels measured using an ACCU-CHECK® glucometer on a daily basis. Subsequently each group was given its respective second and subsequent doses through intraperitoneal injection.
# [4] = test system: STZ-induced diabetic rats; details: for blood glucose levels: 100 mg/kgbw oral once every five days
# Experimental: as §1, §2
# The dose-response of the drug was monitored for a period of 30 and 90 days using drug doses of 100 and 200 mg/kgbw administered once every five days. Spectrophotometric measurements and statistical analysis were obtained as in Example 2.
Compound,toxicity [1],blood glucose level ([2]; after 30 days) [mg/dL],"blood glucose level ([2]; three months (90 days), P<0.05) [mg/dL]","insulin levels ([2]; 75 mg/kgbw intraperitoneal, compared to the control (FIG. 24))","glycogen level ([2]; 75 mg/kgbw intraperitoneal, day 30, hepatic glycogen) [mg/g tissue]","glycogen level ([2]; 75 mg/kgbw intraperitoneal, day 90, hepatic glycogen) [mg/g tissue]","hyperglycemic condition ([3]; 250 mg/kgbw intraperitoneal, 30 days, data not shown)","blood glucose level ([3]; 250 mg/kgbw intraperitoneal, multiple doses once every 5 days)","blood glucose level ([3]; the other doses (50, 150, 300 mg/kgbw) intraperitoneal)",blood glucose levels ([4]; day 30) [mg/dL],blood glucose levels ([4]; day 90) [mg/dL],glycogen levels ([4]; oral (FIG. 18)),"insulin levels ([4]; oral, compared to the control (FIG. 25))"
"O=C(O)c1cccc(C(=O)O)n1 [dipicolinic acid, Pyridine-2,6-dicarboxylic acid]",nontoxic,,,,,,,,,,,,
"(Diaqua)(2,6-pyridine diacetyl-carboxylato)oxovanadium(IV) [Complex 1]",,135,118.7,significantly reducing insulin levels as compared to the control,2.01,2.00,reduced the hyperglycemic condition in a steady state for a period of 30 days,stable and sustainable blood glucose level throughout the study,irregularity in maintaining the reduced levels,108,102,significant effect on increasing the glycogen levels,significant reduction in insulin levels as compared to the control

# Reference: patent US10953042B2, “Vanadium insulin-mimetics, methods of preparation, and methods for treatment of diabetes” (The University of Trinidad and Tobago, priority 2017, dated 2021)
